Results: ChEMBL document CHEMBL3044670, “Aromatic sulfonyl hydrazides and sulfonyl hydrazones: antimicrobial activity and physical properties” (2013)
Converted amounts (≈) assume the structure as drawn.

Key:
Pseudomonas aeruginosa [1] = assay: Antibacterial activity against Pseudomonas aeruginosa ATCC 27853 at 40 ug/disk after 18 to 24 hr by disk diffusion method; type: functional; conditions: read-out: DIZ
Escherichia coli [2] = assay: Antibacterial activity against Escherichia coli ATCC 25922 at 40 ug/disk after 18 to 24 hr by disk diffusion method; type: functional; conditions: read-out: DIZ
Pseudomonas fluorescens [3] = assay: Antibacterial activity against Pseudomonas fluorescens ATCC 49838 at 40 ug/disk after 18 to 24 hr by disk diffusion method; type: functional; conditions: read-out: DIZ
Klebsiella pneumoniae [4] = assay: Antibacterial activity against Klebsiella pneumoniae ATCC 13883 at 40 ug/disk after 18 to 24 hr by disk diffusion method; type: functional; conditions: read-out: DIZ
Staphylococcus aureus [5] = assay: Antibacterial activity against Staphylococcus aureus ATCC 25923 at 40 ug/disc after 18 to 24 hr by disk diffusion method; type: functional; conditions: read-out: DIZ
Bacillus cereus [6] = assay: Antibacterial activity against Bacillus cereus ATCC 11778 at 40 ug/disk after 18 to 24 hr by disk diffusion method; type: functional; conditions: read-out: DIZ
Candida albicans [7] = assay: Antifungal activity against Candida albicans ATCC 90028 after 18 to 24 hr by broth microdilution method; type: functional
Enterococcus faecalis [8] = assay: Antibacterial activity against Enterococcus faecalis ATCC 29212 at 40 ug/disk after 18 to 24 hr by disk diffusion method; type: functional; conditions: read-out: DIZ
Bacillus subtilis [9] = assay: Antibacterial activity against Bacillus subtilis ATCC 6633 at 40 ug/disk after 18 to 24 hr by disk diffusion method; type: functional; conditions: read-out: DIZ
[10] = test system: Staphylococcus epidermidis; assay: Antibacterial activity against Staphylococcus epidermidis ATCC 12228 at 40 ug/disk after 18 to 24 hr by disk diffusion method; type: functional; conditions: read-out: DIZ
Klebsiella aerogenes [11] = assay: Antibacterial activity against Enterobacter aerogenes ATCC 13048 at 40 ug/disk after 18 to 24 hr by disk diffusion method; type: functional; conditions: read-out: DIZ
Candida albicans [12] = assay: microbe, parasite or virus in culture; conditions: ATCC 90028, read-out: DIZ
Description: Antifungal activity against Candida albicans ATCC 90028 at 40 ug/disk after 18 to 24 hr by disk diffusion method

Escherichia coli [13] = assay: Antibacterial activity against Escherichia coli ATCC 25922 at 140 ug/disk after 18 to 24 hr by disk diffusion method; type: functional; conditions: read-out: DIZ
Klebsiella pneumoniae [14] = assay: Antibacterial activity against Klebsiella pneumoniae ATCC 13883 at 140 ug/disk after 18 to 24 hr by disk diffusion method; type: functional; conditions: read-out: DIZ
Pseudomonas fluorescens [15] = assay: Antibacterial activity against Pseudomonas fluorescens ATCC 49838 at 140 ug/disk after 18 to 24 hr by disk diffusion method; type: functional; conditions: read-out: DIZ
Klebsiella aerogenes [16] = assay: Antibacterial activity against Enterobacter aerogenes ATCC 13048 at 140 ug/disk after 18 to 24 hr by disk diffusion method; type: functional; conditions: read-out: DIZ
[17] = test system: Staphylococcus epidermidis; assay: Antibacterial activity against Staphylococcus epidermidis ATCC 12228 at 140 ug/disk after 18 to 24 hr by disk diffusion method; type: functional; conditions: read-out: DIZ
Bacillus subtilis [18] = assay: Antibacterial activity against Bacillus subtilis ATCC 6633 at 140 ug/disk after 18 to 24 hr by disk diffusion method; type: functional; conditions: read-out: DIZ
Enterococcus faecalis [19] = assay: Antibacterial activity against Enterococcus faecalis ATCC 29212 at 140 ug/disk after 18 to 24 hr by disk diffusion method; type: functional; conditions: read-out: DIZ
Bacillus cereus [20] = assay: Antibacterial activity against Bacillus cereus ATCC 11778 at 140 ug/disk after 18 to 24 hr by disk diffusion method; type: functional; conditions: read-out: DIZ
Staphylococcus aureus [21] = assay: Antibacterial activity against Staphylococcus aureus ATCC 25923 at 140 ug/disc after 18 to 24 hr by disk diffusion method; type: functional; conditions: read-out: DIZ
Pseudomonas aeruginosa [22] = assay: Antibacterial activity against Pseudomonas aeruginosa ATCC 27853 after 18 to 24 hr by broth microdilution method; type: functional
Escherichia coli [23] = assay: Antibacterial activity against Escherichia coli ATCC 25922 after 18 to 24 hr by broth microdilution method; type: functional
Klebsiella pneumoniae [24] = assay: Antibacterial activity against Klebsiella pneumoniae ATCC 13883 after 18 to 24 hr by broth microdilution method; type: functional
Pseudomonas fluorescens [25] = assay: Antibacterial activity against Pseudomonas fluorescens ATCC 49838 after 18 to 24 hr by broth microdilution method; type: functional
Klebsiella aerogenes [26] = assay: Antibacterial activity against Enterobacter aerogenes ATCC 13048 after 18 to 24 hr by broth microdilution method; type: functional
[27] = test system: Staphylococcus epidermidis; assay: Antibacterial activity against Staphylococcus epidermidis ATCC 12228 after 18 to 24 hr by broth microdilution method; type: functional
Enterococcus faecalis [28] = assay: Antibacterial activity against Enterococcus faecalis ATCC 29212 after 18 to 24 hr by broth microdilution method; type: functional
Bacillus cereus [29] = assay: Antibacterial activity against Bacillus cereus ATCC 11778 after 18 to 24 hr by broth microdilution method; type: functional
Staphylococcus aureus [30] = assay: Antibacterial activity against Staphylococcus aureus ATCC 25923 after 18 to 24 hr by broth microdilution method; type: functional
Candida albicans [31] = assay: Antifungal activity against Candida albicans ATCC 90028 at 140 ug/disk after 18 to 24 hr by disk diffusion method; type: functional; conditions: read-out: DIZ
Pseudomonas aeruginosa [32] = assay: Antibacterial activity against Pseudomonas aeruginosa ATCC 27853 at 140 ug/disk after 18 to 24 hr by disk diffusion method; type: functional; conditions: read-out: DIZ
Bacillus subtilis [33] = assay: Antibacterial activity against Bacillus subtilis ATCC 6633 after 18 to 24 hr by broth microdilution method; type: functional
Bacillus subtilis [34] = assay: Antibacterial activity against Bacillus subtilis ATCC 6633 at 30 ug/disk after 18 to 24 hr by disk diffusion method; type: functional; conditions: read-out: DIZ
Bacillus cereus [35] = assay: Antibacterial activity against Bacillus cereus ATCC 11778 at 30 ug/disk after 18 to 24 hr by disk diffusion method; type: functional; conditions: read-out: DIZ
Enterococcus faecalis [36] = assay: Antibacterial activity against Enterococcus faecalis ATCC 29212 at 30 ug/disk after 18 to 24 hr by disk diffusion method; type: functional; conditions: read-out: DIZ
Staphylococcus aureus [37] = assay: Antibacterial activity against Staphylococcus aureus ATCC 25923 at 30 ug/disk after 18 to 24 hr by disk diffusion method; type: functional; conditions: read-out: DIZ
Candida albicans [38] = assay: Antifungal activity against Candida albicans ATCC 90028 at 30 ug/disk after 18 to 24 hr by disk diffusion method; type: functional; conditions: read-out: DIZ
Pseudomonas aeruginosa [39] = assay: Antibacterial activity against Pseudomonas aeruginosa ATCC 27853 at 30 ug/disk after 18 to 24 hr by disk diffusion method; type: functional; conditions: read-out: DIZ
Escherichia coli [40] = assay: Antibacterial activity against Escherichia coli ATCC 25922 at 30 ug/disk after 18 to 24 hr by disk diffusion method; type: functional; conditions: read-out: DIZ
Klebsiella pneumoniae [41] = assay: Antibacterial activity against Klebsiella pneumoniae ATCC 13883 at 30 ug/disk after 18 to 24 hr by disk diffusion method; type: functional; conditions: read-out: DIZ
Klebsiella aerogenes [42] = assay: Antibacterial activity against Enterobacter aerogenes ATCC 13048 at 30 ug/disk after 18 to 24 hr by disk diffusion method; type: functional; conditions: read-out: DIZ
Pseudomonas fluorescens [43] = assay: Antibacterial activity against Pseudomonas fluorescens ATCC 49838 at 30 ug/disk after 18 to 24 hr by disk diffusion method; type: functional; conditions: read-out: DIZ
[44] = test system: Staphylococcus epidermidis; assay: Antibacterial activity against Staphylococcus epidermidis ATCC 12228 at 30 ug/disk after 18 to 24 hr by disk diffusion method; type: functional; conditions: read-out: DIZ

SMILES	MIC (Candida albicans [7])	zone of inhibition at 140 µg/disc (Escherichia coli [13])	zone of inhibition at 140 µg/disc (Klebsiella pneumoniae [14])	zone of inhibition at 140 µg/disc (Pseudomonas fluorescens [15])	zone of inhibition at 140 µg/disc (Klebsiella aerogenes [16])	zone of inhibition at 140 µg/disc [17]	zone of inhibition at 140 µg/disc (Bacillus subtilis [18])	zone of inhibition at 140 µg/disc (Enterococcus faecalis [19])	zone of inhibition at 140 µg/disc (Bacillus cereus [20])	zone of inhibition at 140 µg/disc (Staphylococcus aureus [21])	MIC (Pseudomonas aeruginosa [22])	MIC (Escherichia coli [23])	MIC (Klebsiella pneumoniae [24])	MIC (Pseudomonas fluorescens [25])	MIC (Klebsiella aerogenes [26])	MIC [27]	MIC (Enterococcus faecalis [28])	MIC (Bacillus cereus [29])	MIC (Staphylococcus aureus [30])	MIC (Bacillus subtilis [33])	further results
Clc1ccc(COC(Cn2ccnc2)c2ccc(Cl)cc2Cl)c(Cl)c1 (configuration not stated) [MICONAZOLE]	0.15 µg/mL (≈ 0.36 µM)	–	–	–	–	–	–	–	–	–	–	–	–	–	–	–	–	–	–	–	zone of inhibition at 40 µg/disc (Pseudomonas aeruginosa [1]): 0 mm; zone of inhibition at 40 µg/disc (Escherichia coli [2]): 0 mm; zone of inhibition at 40 µg/disc (Pseudomonas fluorescens [3]): 0 mm; zone of inhibition at 40 µg/disc (Klebsiella pneumoniae [4]): 0 mm; zone of inhibition at 40 µg/disc (Staphylococcus aureus [5]): 0 mm; zone of inhibition at 40 µg/disc (Bacillus cereus [6]): 0 mm; zone of inhibition at 40 µg/disc (Enterococcus faecalis [8]): 0 mm; zone of inhibition at 40 µg/disc (Bacillus subtilis [9]): 0 mm; zone of inhibition at 40 µg/disc [10]: 0 mm; zone of inhibition at 40 µg/disc (Klebsiella aerogenes [11]): 0 mm; zone of inhibition at 40 µg/disc (Candida albicans [12]): 26 mm
CN(N)S(=O)(=O)c1ccccc1	> 2000 µg/mL	18 mm	17 mm	22 mm	16 mm	14 mm	16 mm	15 mm	15 mm	19 mm	62.5 µg/mL (≈ 336 µM)	125 µg/mL (≈ 671 µM)	125 µg/mL (≈ 671 µM)	62.5 µg/mL (≈ 336 µM)	125 µg/mL (≈ 671 µM)	125 µg/mL (≈ 671 µM)	250 µg/mL (≈ 1340 µM)	125 µg/mL (≈ 671 µM)	125 µg/mL (≈ 671 µM)	125 µg/mL (≈ 671 µM)	zone of inhibition at 140 µg/disc (Candida albicans [31]): 0 mm; zone of inhibition at 140 µg/disc (Pseudomonas aeruginosa [32]): 19 mm
CN(C)[C@@H]1C(O)=C(C(N)=O)C(=O)[C@@]2(O)C(O)=C3C(=O)c4c(O)cccc4[C@@](C)(O)[C@H]3C[C@@H]12 [TETRACYCLINE]	–	–	–	–	–	–	–	–	–	–	0.125 µg/mL (≈ 0.281 µM)	0.075 µg/mL (≈ 0.169 µM)	0.15 µg/mL (≈ 0.338 µM)	0.125 µg/mL (≈ 0.281 µM)	0.15 µg/mL (≈ 0.338 µM)	0.125 µg/mL (≈ 0.281 µM)	0.625 µg/mL (≈ 1.41 µM)	–	–	0.075 µg/mL (≈ 0.169 µM)	zone of inhibition at 30 µg/disc (Bacillus subtilis [34]): 26 mm; zone of inhibition at 30 µg/disc (Bacillus cereus [35]): 19 mm; zone of inhibition at 30 µg/disc (Enterococcus faecalis [36]): 0 mm; zone of inhibition at 30 µg/disc (Staphylococcus aureus [37]): 0 mm; zone of inhibition at 30 µg/disc (Candida albicans [38]): 0 mm; zone of inhibition at 30 µg/disc (Pseudomonas aeruginosa [39]): 23 mm; zone of inhibition at 30 µg/disc (Escherichia coli [40]): 23 mm; zone of inhibition at 30 µg/disc (Klebsiella pneumoniae [41]): 12 mm; zone of inhibition at 30 µg/disc (Klebsiella aerogenes [42]): 0 mm; zone of inhibition at 30 µg/disc (Pseudomonas fluorescens [43]): 19 mm; zone of inhibition at 30 µg/disc [44]: 19 mm
CN(/N=C/c1cccs1)S(=O)(=O)c1ccccc1	1000 µg/mL (≈ 3570 µM)	17 mm	21 mm	25 mm	17 mm	15 mm	24 mm	0 mm	25 mm	12 mm	125 µg/mL (≈ 446 µM)	125 µg/mL (≈ 446 µM)	125 µg/mL (≈ 446 µM)	125 µg/mL (≈ 446 µM)	250 µg/mL (≈ 892 µM)	125 µg/mL (≈ 446 µM)	1000 µg/mL (≈ 3570 µM)	250 µg/mL (≈ 892 µM)	250 µg/mL (≈ 892 µM)	125 µg/mL (≈ 446 µM)	zone of inhibition at 140 µg/disc (Candida albicans [31]): 0 mm; zone of inhibition at 140 µg/disc (Pseudomonas aeruginosa [32]): 24 mm
NCC(O)CNS(=O)(=O)c1ccccc1 (configuration not stated)	1000 µg/mL (≈ 4340 µM)	0 mm	0 mm	0 mm	0 mm	0 mm	0 mm	0 mm	0 mm	0 mm	1000 µg/mL (≈ 4340 µM)	1000 µg/mL (≈ 4340 µM)	> 2000 µg/mL	1000 µg/mL (≈ 4340 µM)	1000 µg/mL (≈ 4340 µM)	> 2000 µg/mL	> 2000 µg/mL	> 2000 µg/mL	> 2000 µg/mL	> 2000 µg/mL	zone of inhibition at 140 µg/disc (Candida albicans [31]): 0 mm; zone of inhibition at 140 µg/disc (Pseudomonas aeruginosa [32]): 0 mm
